20 compounds from patent US12630534B2 (TAKEDA PHARMACEUTICAL COMPANY LIMITED, priority 2020, dated 2026) can be followed below.

One may read the inhibition as the drop in the measured response relative to a control, in per cent.

The experiment deals with T1, human GPR139 (Homo sapiens, UniProt Q6DWJ6).
T1 construct: expressed in transfected cells; host or cells: CHO-TREx (Life Technologies) cells, expression induced with doxycycline
T1 sequence (Q6DWJ6 1-353): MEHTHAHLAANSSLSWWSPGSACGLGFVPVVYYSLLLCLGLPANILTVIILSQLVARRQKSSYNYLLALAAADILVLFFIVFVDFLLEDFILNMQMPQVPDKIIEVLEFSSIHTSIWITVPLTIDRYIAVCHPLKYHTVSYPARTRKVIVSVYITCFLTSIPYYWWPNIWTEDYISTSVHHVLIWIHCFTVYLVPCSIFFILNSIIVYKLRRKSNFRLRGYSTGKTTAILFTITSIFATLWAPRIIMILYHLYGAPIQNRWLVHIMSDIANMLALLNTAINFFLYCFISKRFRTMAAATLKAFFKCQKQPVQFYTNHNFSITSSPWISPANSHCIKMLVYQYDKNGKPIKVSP
As to the kind of experiment: Inhibition rate of the amount of IP1 in GPR139-expressed CHO cells (inverse agonist assay, Test Example 2). The settings on record: CHO, relative value, inhibition rate of Example Compound 2 in Test Example 1 defined as 100%. Format: cell-based. Put shortly: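 IP1 accumulation read by IP-One HTRF after 40 min compound exposure at 37° C in stimulation buffer, 2000 cells/well, GPR139 expression induced the day before with doxycycline. Results given as relative inhibition rate, normalised to a reference compound set at […].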
For the compound `C=Cc1cc(N2CCO[C@H](C)C2)cc(-n2ccn(Cc3cnn(CC)c3)c2=O)c1F` [Example 74, 1-{3-ethenyl-2-fluoro-5-[(2R)-2-methylmorpholin-4-yl]phenyl}-3-[(1-ethyl-1H-pyrazol-4-yl)methyl]-1,3-dihydro-2H-imidazol-2-one], the inhibition at 30 µM amounted to 98%. The result for `CCn1cc(Cn2c(C)nn(-c3cc(N4CCC(F)(F)CC4)cc(C(F)(F)F)c3F)c2=O)cn1` [Example 97, 2-[5-(4,4-difluoropiperidin-1-yl)-2-fluoro-3-(trifluoromethyl)phenyl]-4-[(1-ethyl-1H-pyrazol-4-yl)methyl]-5-methyl-2,4-dihydro-3H-1,2,4-triazol-3-one] reads 102%. The result for `CCn1cc(Cn2ccn(-c3cc(N4CCO[C@H](C)C4)cc(C(F)(F)F)c3C)c2=O)cn1` [Example 8, 1-[(1-ethyl-1H-pyrazol-4-yl)methyl]-3-{2-methyl-5-[(2R)-2-methylmorpholin-4-yl]-3-(trifluoromethyl)phenyl}-1,3-dihydro-2H-imidazol-2-one] reads 101%. Then `CCn1cc(Cn2cc(C)n(-c3cc(C(F)(F)F)cc(N4CCOC(F)(F)C4)n3)c2=O)cn1` [Example 111, 3-[6-(2,2-difluoromorpholin-4-yl)-4-(trifluoromethyl)pyridin-2-yl]-1-[(1-ethyl-1H-pyrazol-4-yl)methyl]-4-methyl-1,3-dihydro-2H-imidazol-2-one], with 105%; and `CCn1cc(Cn2cc(C)n(-c3cc(C(F)(F)F)cc(N4CCOC(C)(C)C4)n3)c2=O)cn1` [Example 125, 3-[6-(2,2-dimethylmorpholin-4-yl)-4-(trifluoromethyl)pyridin-2-yl]-1-[(1-ethyl-1H-pyrazol-4-yl)methyl]-4-methyl-1,3-dihydro-2H-imidazol-2-one], with 101%; and `CCn1cc(Cn2c(C(F)(F)F)cn(-c3nc(N4CCO[C@H](C)C4)cc(C(F)(F)F)c3F)c2=O)cn1` [Example 127, 3-[(1-Ethyl-1H-pyrazole-4-yl)methyl]-1-{3 fluoro-6-[(2R)-2-methylmorpholine-4-yl]-4-(trifluoromethyl)pyridine-2-yl}-4-(trifluoromethyl)-1,3-dihydro-2H-imidazole-2-one], with 99%. As to `CCn1cc(Cn2cc(C)n(-c3cc(OCC4CCO4)cc(C(F)(F)F)c3)c2=O)cn1` (centres unmarked) [Example 49, 1-[(1-ethyl-1H-pyrazol-4-yl)methyl]-4-methyl-3-{3-[(oxetan-2-yl)methoxy]-5-(trifluoromethyl)phenyl}-1,3-dihydro-2H-imidazol-2-one], the inhibition at 30 µM is 102%.

As to `CCn1cc(Cn2c(C)cn(-c3cc(N4CCO[C@H](C)C4)cc(C(F)(F)F)c3C)c2=O)cn1` [Example 62, 3-[(1-ethyl-1H-pyrazol-4-yl)methyl]-4-methyl-1-{2-methyl-5-[(2R)-2-methylmorpholin-4-yl]-3-(trifluoromethyl)phenyl}-1,3-dihydro-2H-imidazol-2-one], the inhibition at 30 µM stood at 99%.

For `CCn1cc(Cn2cc(C)n(-c3cc(C(F)(F)F)c(F)c(N4CCO[C@H](C)C4)n3)c2=O)cn1` [Example 149, 1-[(1-ethyl-1H-pyrazol-4-yl)methyl]-3-{5-fluoro-6-[(2R)-2-methylmorpholin-4-yl]-4-(trifluoromethyl)pyridin-2-yl}-4-methyl-1,3-dihydro-2H-imidazol-2-one], the inhibition at 30 µM was determined as 101%. On to `Cc1cn(Cc2cnn(C(C)C)c2)c(=O)n1-c1cc(C2CC2)cc(N2CCOC(C)(C)C2)n1` [Example 130, 3-[4-cyclopropyl-6-(2,2-dimethylmorpholin-4-yl)pyridin-2-yl]-4-methyl-1-{[1-(propan-2-yl)-1H-pyrazol-4-yl]methyl}-1,3-dihydro-2H-imidazol-2-one], for which the inhibition at 30 µM was 100%. For `CCn1cc(Cn2cc(C)n(-c3cc(N4CCC(F)(F)CC4)cc(C(F)(F)F)c3)c2=O)cn1` [Example 19, 3-[3-(4,4-difluoropiperidin-1-yl)-5-(trifluoromethyl)phenyl]-1-[(1-ethyl-1H-pyrazol-4-yl)methyl]-4-methyl-1,3-dihydro-2H-imidazol-2-one], the inhibition at 30 µM turned out to be 100%. Then `CCn1cc(Cn2c(C)c(C)n(-c3cc(C4CC4)cc(N4CCO[C@H](C)C4)n3)c2=O)cn1` [Example 162, 1-{4-cyclopropyl-6-[(2R)-2-methylmorpholin-4-yl]pyridin-2-yl}-3-[(1-ethyl-1H-pyrazol-4-yl)methyl]-4,5-dimethyl-1,3-dihydro-2H-imidazol-2-one], with 101%.

Consider `Cc1cn(-c2cc(OC3CCOCC3)cc(C(F)(F)F)c2F)c(=O)n1Cc1cnn(C(C)C)c1` [Example 119, 1-{2-fluoro-5-[(oxan-4-yl)oxy]-3-(trifluoromethyl)phenyl}-4-methyl-3-{[1-(propan-2-yl)-1H-pyrazol-4-yl]methyl}-1,3-dihydro-2H-imidazol-2-one], for which the inhibition at 30 µM worked out at 101%. Then `CCn1cc(Cn2c(C)cn(-c3nc(N4CCO[C@H](C)C4)cc(C(F)(F)F)c3F)c2=O)cn1` [Example 30], with 99%; and `CCn1cc(Cn2ccn(-c3cc(N4CCO[C@@H](C)C4)cc(C(F)(F)F)c3F)c2=O)cn1` [Example 11, 1-[(1-ethyl-1H-pyrazol-4-yl)methyl]-3-{2-fluoro-5-[(2S)-2-methylmorpholin-4-yl]-3-(trifluoromethyl)phenyl}-1,3-dihydro-2H-imidazol-2-one], with 98%; and `CCn1cc(Cn2ccn(-c3cc(N(C)C4CCOCC4)cc(C(C)(C)F)c3F)c2=O)cn1` [Example 122, 1-[(1-ethyl-1H-pyrazol-4-yl)methyl]-3-{2-fluoro-3-(2-fluoropropan-2-yl)-5-[methyl(oxan-4-yl)amino]phenyl}-1,3-dihydro-2H-imidazol-2-one], with 103%. For `CCn1cc(Cn2c(C)cn(-c3cc(N4CCOC(C)(C)C4)cc(Cl)c3F)c2=O)cn1` [Example 166, 1-[3-chloro-5-(2,2-dimethylmorpholin-4-yl)-2-fluorophenyl]-3-[(1-ethyl-1H-pyrazol-4-yl)methyl]-4-methyl-1,3-dihydro-2H-imidazol-2-one], the inhibition at 30 µM is 98%. The result for `Cc1cn(Cc2cnn(C(C)C)c2)c(=O)n1-c1cc(OC[C@@H]2CCCO2)cc(C(F)(F)F)c1` [Example 101, 4-methyl-3-[3-{[(2S)-oxolan-2-yl]methoxy}-5-(trifluoromethyl)phenyl]-1-{[1-(propan-2-yl)-1H-pyrazol-4-yl]methyl}-1,3-dihydro-2H-imidazol-2-one] reads 99%; that for `CCn1cc(Cn2c(C)nn(-c3cc(N(C)C4CCOCC4)cc(C(F)(F)F)c3F)c2=O)cn1` [Example 95, 4-[(1-ethyl-1H-pyrazol-4-yl)methyl]-2-{2-fluoro-5-[methyl(oxan-4-yl)amino]-3-(trifluoromethyl)phenyl}-5-methyl-2,4-dihydro-3H-1,2,4-triazol-3-one], 100%.

Take `Cc1nn(-c2cc(N(C)C3CCOCC3)cc(C(F)(F)F)c2F)c(=O)n1Cc1cnn(C(C)C)c1` [Example 92, 2-{2-fluoro-5-[methyl(oxan-4-yl)amino]-3-(trifluoromethyl)phenyl}-5-methyl-4-{[1-(propan-2-yl)-1H-pyrazol-4-yl]methyl}-2,4-dihydro-3H-1,2,4-triazol-3-one]: the inhibition at 30 µM is 99%.
